Test results published in ChEMBL document CHEMBL4507291 (2021).

Key:
[1] = target: T1, Inhibitor of nuclear factor kappa-B kinase subunit epsilon (Homo sapiens) (UniProt Q14164)
T1 sequence (whole entry): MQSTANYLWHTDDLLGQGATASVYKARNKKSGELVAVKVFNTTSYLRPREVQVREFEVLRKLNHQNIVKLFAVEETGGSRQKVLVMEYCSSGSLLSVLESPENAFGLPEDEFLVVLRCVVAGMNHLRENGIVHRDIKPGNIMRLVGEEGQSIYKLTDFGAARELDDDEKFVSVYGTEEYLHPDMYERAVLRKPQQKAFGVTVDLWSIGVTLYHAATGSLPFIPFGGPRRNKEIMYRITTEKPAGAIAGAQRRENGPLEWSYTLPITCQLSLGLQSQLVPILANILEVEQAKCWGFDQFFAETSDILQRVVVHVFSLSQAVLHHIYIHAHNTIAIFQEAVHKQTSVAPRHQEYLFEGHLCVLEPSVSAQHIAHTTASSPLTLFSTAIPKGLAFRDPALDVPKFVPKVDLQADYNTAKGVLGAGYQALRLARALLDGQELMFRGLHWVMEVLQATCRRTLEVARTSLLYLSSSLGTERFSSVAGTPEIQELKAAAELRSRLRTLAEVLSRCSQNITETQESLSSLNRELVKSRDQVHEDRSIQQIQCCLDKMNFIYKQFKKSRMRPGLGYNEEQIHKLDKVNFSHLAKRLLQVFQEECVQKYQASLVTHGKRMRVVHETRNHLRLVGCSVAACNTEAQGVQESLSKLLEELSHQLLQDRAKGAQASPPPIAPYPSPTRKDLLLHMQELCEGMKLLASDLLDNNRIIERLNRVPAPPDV

[2] = target: Death-associated protein kinase 2 (Homo sapiens) (UniProt Q9UIK4)
Death-associated protein kinase 2 (Homo sapiens), sequence (Q9UIK4 whole entry, looked up): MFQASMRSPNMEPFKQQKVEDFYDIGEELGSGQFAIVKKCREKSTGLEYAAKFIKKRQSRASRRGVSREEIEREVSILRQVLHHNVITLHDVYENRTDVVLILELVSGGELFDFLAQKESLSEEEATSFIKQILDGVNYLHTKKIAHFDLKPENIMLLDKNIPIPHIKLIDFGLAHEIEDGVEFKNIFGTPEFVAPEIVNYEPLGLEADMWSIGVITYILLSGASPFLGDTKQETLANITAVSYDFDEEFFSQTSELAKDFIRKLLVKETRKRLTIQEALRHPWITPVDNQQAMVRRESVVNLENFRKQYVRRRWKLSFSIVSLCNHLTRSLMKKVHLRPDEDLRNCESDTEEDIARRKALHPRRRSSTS

[3] = target: BDNF/NT-3 growth factors receptor (Homo sapiens) (UniProt Q16620)
[4] = target: Serine/threonine-protein kinase Nek11 (Homo sapiens) (UniProt Q8NG66)
Serine/threonine-protein kinase Nek11 (Homo sapiens), sequence (Q8NG66 whole entry): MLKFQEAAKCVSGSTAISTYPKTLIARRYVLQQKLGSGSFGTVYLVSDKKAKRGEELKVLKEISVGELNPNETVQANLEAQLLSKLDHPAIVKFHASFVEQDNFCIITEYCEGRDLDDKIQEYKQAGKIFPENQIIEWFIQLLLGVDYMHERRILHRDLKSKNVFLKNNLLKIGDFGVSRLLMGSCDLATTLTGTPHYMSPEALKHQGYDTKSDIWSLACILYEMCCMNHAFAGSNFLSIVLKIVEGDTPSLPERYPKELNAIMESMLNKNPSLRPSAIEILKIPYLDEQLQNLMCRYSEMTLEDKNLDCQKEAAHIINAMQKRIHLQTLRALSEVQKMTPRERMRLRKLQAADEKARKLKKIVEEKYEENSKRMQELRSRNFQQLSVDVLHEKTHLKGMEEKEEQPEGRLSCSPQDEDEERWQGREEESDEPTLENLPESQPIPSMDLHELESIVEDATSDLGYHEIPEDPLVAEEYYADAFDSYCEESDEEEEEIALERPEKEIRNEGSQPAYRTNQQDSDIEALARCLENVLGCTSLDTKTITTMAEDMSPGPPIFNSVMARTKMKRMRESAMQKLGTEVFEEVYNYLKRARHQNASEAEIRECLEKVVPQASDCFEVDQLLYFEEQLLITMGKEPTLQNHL

[5] = target: SRSF protein kinase 2 (Homo sapiens) (UniProt P78362)
SRSF protein kinase 2 (Homo sapiens), sequence (P78362 whole entry, looked up): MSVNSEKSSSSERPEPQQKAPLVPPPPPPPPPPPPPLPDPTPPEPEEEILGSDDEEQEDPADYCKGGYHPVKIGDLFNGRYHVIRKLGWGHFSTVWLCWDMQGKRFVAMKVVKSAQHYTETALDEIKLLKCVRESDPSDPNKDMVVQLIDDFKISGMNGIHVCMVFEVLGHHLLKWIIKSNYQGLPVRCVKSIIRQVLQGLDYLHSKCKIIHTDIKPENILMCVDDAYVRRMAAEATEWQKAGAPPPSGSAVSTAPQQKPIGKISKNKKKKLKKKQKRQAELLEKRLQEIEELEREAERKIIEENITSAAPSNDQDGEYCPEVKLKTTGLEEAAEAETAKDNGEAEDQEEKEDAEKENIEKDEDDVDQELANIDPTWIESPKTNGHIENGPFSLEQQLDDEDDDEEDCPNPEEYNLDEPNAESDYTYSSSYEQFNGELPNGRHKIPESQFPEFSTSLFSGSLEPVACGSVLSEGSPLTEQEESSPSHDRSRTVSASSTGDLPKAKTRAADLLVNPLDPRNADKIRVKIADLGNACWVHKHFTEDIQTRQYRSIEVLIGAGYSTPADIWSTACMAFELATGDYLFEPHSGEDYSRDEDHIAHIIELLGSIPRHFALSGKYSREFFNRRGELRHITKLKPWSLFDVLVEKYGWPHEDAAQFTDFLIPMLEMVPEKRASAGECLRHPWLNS

[6] = target: Serine/threonine-protein kinase PAK 6 (Homo sapiens) (UniProt Q9NQU5)
[7] = target: T2, Ephrin type-A receptor 8 (Homo sapiens) (UniProt P29322)
T2 sequence (whole entry): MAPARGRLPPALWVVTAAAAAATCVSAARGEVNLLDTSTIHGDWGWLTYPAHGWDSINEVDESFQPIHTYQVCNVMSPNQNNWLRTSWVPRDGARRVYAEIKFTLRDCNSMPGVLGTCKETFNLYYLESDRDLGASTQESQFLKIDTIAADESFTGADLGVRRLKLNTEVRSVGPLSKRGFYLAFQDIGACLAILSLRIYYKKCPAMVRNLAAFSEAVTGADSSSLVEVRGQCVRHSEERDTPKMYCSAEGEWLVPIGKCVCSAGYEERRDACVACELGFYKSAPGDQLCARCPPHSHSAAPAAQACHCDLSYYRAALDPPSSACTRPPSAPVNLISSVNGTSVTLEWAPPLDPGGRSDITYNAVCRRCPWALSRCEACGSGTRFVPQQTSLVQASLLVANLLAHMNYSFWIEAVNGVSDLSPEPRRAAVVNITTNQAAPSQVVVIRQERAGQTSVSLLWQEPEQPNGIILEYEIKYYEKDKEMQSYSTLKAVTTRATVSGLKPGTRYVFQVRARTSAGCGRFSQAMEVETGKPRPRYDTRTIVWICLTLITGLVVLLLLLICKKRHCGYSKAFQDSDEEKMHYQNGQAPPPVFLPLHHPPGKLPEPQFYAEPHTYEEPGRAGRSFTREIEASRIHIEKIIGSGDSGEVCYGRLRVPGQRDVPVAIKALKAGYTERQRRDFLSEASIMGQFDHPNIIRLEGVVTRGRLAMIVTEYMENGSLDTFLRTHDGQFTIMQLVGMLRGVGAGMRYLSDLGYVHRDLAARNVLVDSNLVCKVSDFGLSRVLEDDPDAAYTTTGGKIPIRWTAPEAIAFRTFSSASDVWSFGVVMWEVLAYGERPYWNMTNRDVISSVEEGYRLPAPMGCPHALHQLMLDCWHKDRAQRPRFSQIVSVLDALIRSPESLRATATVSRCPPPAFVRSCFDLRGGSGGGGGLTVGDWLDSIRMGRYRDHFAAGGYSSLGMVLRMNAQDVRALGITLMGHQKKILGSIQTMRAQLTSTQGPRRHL

[8] = target: 5-hydroxytryptamine receptor 1B (Homo sapiens) (UniProt P28222); details: Compound concentration 10.0 uM
5-hydroxytryptamine receptor 1B (Homo sapiens), sequence (P28222 whole entry): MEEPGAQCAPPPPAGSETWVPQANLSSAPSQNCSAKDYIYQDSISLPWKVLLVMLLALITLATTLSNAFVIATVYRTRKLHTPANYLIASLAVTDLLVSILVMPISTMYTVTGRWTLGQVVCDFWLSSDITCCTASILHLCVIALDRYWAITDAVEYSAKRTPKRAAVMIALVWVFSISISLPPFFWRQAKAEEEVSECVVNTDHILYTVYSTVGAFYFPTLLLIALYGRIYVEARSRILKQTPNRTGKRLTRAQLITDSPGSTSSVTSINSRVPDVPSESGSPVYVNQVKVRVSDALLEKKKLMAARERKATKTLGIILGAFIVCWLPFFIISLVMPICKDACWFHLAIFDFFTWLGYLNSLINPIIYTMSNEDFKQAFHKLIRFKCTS

[9] = tested on: Mast/stem cell growth factor receptor Kit (Homo sapiens), P10721 [V559D,V654A]
Mast/stem cell growth factor receptor Kit (Homo sapiens), P10721 [V559D,V654A], sequence (P10721 whole entry V559D/V654A, the tested form may be a part): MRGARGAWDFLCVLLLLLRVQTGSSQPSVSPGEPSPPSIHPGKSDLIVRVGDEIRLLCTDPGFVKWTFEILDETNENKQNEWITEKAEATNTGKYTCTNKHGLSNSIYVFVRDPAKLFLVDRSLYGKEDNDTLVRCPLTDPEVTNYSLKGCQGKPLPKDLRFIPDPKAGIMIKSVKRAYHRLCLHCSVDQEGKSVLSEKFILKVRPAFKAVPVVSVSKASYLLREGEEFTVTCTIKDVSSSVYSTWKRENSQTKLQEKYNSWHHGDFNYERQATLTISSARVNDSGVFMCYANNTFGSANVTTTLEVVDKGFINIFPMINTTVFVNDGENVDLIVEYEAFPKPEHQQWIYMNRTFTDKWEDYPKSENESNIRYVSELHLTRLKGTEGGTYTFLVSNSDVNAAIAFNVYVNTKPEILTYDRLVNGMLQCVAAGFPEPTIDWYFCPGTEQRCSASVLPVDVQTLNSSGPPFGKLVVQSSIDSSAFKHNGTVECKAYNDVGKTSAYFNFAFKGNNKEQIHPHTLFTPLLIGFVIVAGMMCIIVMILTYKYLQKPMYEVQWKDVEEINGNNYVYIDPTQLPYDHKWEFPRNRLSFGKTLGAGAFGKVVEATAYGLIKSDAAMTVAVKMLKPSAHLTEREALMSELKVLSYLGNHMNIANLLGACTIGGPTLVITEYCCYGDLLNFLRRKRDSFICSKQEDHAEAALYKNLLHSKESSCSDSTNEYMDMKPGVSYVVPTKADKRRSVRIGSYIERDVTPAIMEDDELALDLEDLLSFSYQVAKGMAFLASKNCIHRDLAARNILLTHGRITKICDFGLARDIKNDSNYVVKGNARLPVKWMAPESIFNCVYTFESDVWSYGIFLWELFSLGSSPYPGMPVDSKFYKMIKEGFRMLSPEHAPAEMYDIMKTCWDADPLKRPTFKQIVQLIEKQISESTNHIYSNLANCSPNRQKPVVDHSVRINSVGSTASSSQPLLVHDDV

[10] = target: Phosphatidylinositol 4-phosphate 3-kinase C2 domain-containing subunit beta (Homo sapiens) (UniProt O00750)
Phosphatidylinositol 4-phosphate 3-kinase C2 domain-containing subunit beta (Homo sapiens), sequence (O00750 whole entry, the tested form may be a part): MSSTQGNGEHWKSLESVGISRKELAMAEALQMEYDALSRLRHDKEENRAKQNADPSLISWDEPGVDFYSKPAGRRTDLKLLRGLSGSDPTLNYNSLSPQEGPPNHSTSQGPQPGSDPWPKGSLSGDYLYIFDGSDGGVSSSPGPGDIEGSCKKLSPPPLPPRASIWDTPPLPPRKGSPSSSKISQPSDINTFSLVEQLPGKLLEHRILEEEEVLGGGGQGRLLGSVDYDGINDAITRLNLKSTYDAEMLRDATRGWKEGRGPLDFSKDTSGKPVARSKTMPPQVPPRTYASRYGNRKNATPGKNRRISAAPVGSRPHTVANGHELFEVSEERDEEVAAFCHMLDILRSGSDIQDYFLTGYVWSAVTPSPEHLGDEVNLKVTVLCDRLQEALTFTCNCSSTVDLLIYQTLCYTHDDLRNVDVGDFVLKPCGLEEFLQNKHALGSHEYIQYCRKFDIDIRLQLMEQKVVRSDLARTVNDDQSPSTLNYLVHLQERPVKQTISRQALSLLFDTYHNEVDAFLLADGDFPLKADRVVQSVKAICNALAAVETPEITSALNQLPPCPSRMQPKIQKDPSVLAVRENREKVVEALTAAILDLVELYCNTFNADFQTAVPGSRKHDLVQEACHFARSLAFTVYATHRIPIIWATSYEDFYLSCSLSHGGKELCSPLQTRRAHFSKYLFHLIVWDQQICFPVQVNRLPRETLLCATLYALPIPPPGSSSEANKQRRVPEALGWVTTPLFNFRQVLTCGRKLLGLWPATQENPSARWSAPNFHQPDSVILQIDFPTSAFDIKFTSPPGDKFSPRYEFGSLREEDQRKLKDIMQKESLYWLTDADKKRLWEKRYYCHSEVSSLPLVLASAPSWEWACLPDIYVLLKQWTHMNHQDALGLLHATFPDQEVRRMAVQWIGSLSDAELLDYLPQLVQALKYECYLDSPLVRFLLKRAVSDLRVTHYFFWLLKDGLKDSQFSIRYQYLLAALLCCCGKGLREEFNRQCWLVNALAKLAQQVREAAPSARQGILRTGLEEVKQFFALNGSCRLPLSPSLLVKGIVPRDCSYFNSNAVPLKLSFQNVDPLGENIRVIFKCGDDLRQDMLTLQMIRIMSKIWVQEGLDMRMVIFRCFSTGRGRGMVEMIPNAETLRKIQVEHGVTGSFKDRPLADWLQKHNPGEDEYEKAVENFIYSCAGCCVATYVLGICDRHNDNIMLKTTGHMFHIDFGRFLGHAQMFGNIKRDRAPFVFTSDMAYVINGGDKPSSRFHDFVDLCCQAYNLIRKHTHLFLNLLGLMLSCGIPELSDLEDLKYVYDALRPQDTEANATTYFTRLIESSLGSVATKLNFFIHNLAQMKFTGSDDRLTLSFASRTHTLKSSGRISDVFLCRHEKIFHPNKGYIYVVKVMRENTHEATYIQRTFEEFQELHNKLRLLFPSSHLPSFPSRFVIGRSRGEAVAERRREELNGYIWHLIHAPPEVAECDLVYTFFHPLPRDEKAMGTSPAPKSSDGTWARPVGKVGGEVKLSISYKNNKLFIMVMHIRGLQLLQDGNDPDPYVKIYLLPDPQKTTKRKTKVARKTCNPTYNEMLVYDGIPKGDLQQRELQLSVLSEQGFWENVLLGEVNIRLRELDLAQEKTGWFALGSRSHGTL

[11] = target: T3, Muscarinic acetylcholine receptor M5 (Homo sapiens) (UniProt P08912); details: Compound concentration 10.0 uM
T3 sequence (whole entry): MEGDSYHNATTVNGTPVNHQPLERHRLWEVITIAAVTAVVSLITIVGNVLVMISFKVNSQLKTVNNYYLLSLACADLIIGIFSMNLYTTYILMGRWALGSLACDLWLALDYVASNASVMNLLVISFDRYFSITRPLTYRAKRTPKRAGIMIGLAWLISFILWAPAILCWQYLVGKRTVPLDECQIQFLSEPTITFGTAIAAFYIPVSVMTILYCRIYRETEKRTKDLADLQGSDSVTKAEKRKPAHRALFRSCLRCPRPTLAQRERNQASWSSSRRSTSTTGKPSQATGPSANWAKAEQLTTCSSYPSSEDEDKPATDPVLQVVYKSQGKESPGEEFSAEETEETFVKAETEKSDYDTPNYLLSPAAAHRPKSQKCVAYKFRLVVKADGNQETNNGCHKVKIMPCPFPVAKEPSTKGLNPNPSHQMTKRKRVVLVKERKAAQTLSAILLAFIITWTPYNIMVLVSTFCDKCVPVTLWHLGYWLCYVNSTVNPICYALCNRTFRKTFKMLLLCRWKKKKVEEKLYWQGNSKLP

[12] = Compound concentration 1000.0 nM
[13] = Compound concentration 100.0 nM

C[C@@H]1CN(c2cc(-c3nn(C)c4ccc(OC5(C)CC5)cc34)ncn2)C[C@H](C)O1 [MLi-2-NC]
inactive: residual activity [1, 12] 65% | residual activity [2, 12] 89% | residual activity [3, 12] 65% | residual activity [4, 12] 58% | residual activity [5, 12] 88% | residual activity [6, 12] 100% | residual activity [7, 12] 100% | inhibition [8] 7.83% | residual activity [9, 12] 100% | residual activity [10, 12] 70% | inhibition [11] 2.87%

C[C@@H]1CN(c2cc(-c3n[nH]c4ccc(OC5(C)CC5)cc34)ncn2)C[C@H](C)O1 [MLi-2]
inactive: residual activity [1, 13] 74% | residual activity [2, 13] 85% | residual activity [3, 13] 67% | residual activity [4, 13] 100% | residual activity [5, 13] 79% | residual activity [6, 13] 100% | residual activity [7, 13] 82% | inhibition [8] 1.16% | residual activity [9, 13] 100% | residual activity [10, 13] 66% | inhibition [11] 1%
